Results as given in a melting point compilation (Tetko et al.; mined from patent text by program, amines drawn as free bases though some values may be those of a salt).

Structure (SMILES)	melting point
COC(=O)c1cc(Cl)c(NC(C)=O)cc1OC1CCOC1=O (centres undefined)	118 to 119 °C
CCCC[C@H](NC(=O)[C@@H](NC(=O)OCc1ccccc1)[C@@H](C)CC)C(=O)CSCc1ccco1	101 to 103 °C
CCOC(=O)c1ccc(NC(=O)c2c(OC)cccc2OC)cc1	183 to 185 °C
CCCCOc1cc(C(=O)O)cc(N)c1C(=O)c1ccc(Cl)cc1	286 to 288 °C
CCCCCCCCC(c1ccccc1)S(=O)(=O)NC(=O)Nc1c(C(C)C)cccc1C(C)C (centres undefined)	145 to 146 °C
COc1cc(C(N)=S)c2c(c1OC)C(=O)CC2	196 to 199 °C
O=C(O)Cc1ccc2c(c1)Cc1ccccc1CC2=O	178 to 181 °C
CCOC(=O)c1c(C)ccc(Cc2c[nH]cn2)c1O	101 to 103 °C
CCNc1nc(OC)c(C(=O)NCCN(CC)CC)nc1Cl	142 °C
O=C1NC(c2cccs2)=C2C(=O)NC(c3cccs3)=C12	> 400 °C
O=C1CCCC(CN2CC=C(c3ccccc3)CC2)C1 (centres undefined)	56 to 59 °C
COc1cc2c(cc1O)CN(C(C)=O)CC2	142 to 144 °C
CCOC(=O)c1cc(Cl)n2c(C)nnc2n1	108 to 110 °C
COC1=CC(=O)C(OC)=C(CCCC2=C(OC)C(=O)C=C(OC)C2=O)C1=O	157 to 159 °C
NCCCNc1n[nH]c(=O)c2ccccc12	147 to 148 °C
CN(C)C(=Nc1ccccc1)N(C)N1C(=O)c2ccccc2C1=O	146 to 148 °C
CN(CC1CC(c2ccc(F)cc2)=NO1)C1CCC(c2ccc3[nH]c(=O)oc3c2)CC1 (centres undefined)	109 to 114 °C
Cn1nc(-c2cc3c(cc2F)NC(=O)CO3)c(Cl)c1C(F)(F)F	242 °C
Cc1ccc(-c2cc3cc(C4=NNC(=O)CC4)ccc3[nH]2)cc1	266 to 268 °C
CCOC(=O)c1c[nH]c(Br)c1-c1ccc(Cl)cc1	161 to 164 °C
CCCCCCCCCCCCn1c2nc(=O)[nH]c(=O)c-2nc2cc(C)c(C)cc21	223 to 224 °C
COC[C@H]1CCCN1NC(=O)Nc1cccc2c1C(=O)c1c-2n[nH]c1-c1ccc(C(=O)N2CCN(C)CC2)s1	181 to 183 °C
CCCOc1ccccc1-c1nc2n(C3CCCC3)[nH]c(C)c-2c(=O)n1	130 to 132 °C
Clc1ccc2c(c1)CNc1ccccc1C2	132 to 135 °C
CC(C)n1nc(-c2sc(NC(=O)c3ccccc3F)nc2-c2ccccc2)ccc1=O	251 to 252 °C
COc1ccnc(CCc2nc3cccnc3n2-c2ccc(OCc3ccccc3)c(F)c2)c1	168 to 170 °C

Structure (SMILES)	melting point
Cc1cccc(Nc2cc(Cl)nc(S(C)(=O)=O)n2)c1C	140 to 142 °C
COc1ccc(CC(=O)c2c(O)cc(OC)cc2OC)c(OC)c1	116 to 119 °C
O=C(NCCO[N+](=O)[O-])c1cscn1	105 to 108 °C
CCOc1cnc(C(C)C)nc1O	154 °C
CC(C)C1(C(=O)O)CCCCC1	102 °C
O=C1CCCN1c1cccc(C(F)(F)F)c1	65 to 66 °C
CC(C)Cn1c(CNC(=O)OC(C)(C)C)c(-c2ccccc2)c2cc(C(N)=S)ccc2c1=O	228 to 229 °C
Cn1nc(-c2ccccc2)nc1-c1cccnc1	97 to 98 °C
CC(=O)OC1(O)C(C(C)(C)C)=CC(C(=O)c2ccccc2O)=CC1C(C)(C)C (centres undefined)	182 to 186 °C
CCCc1oc(C)cc1C(=O)O	91 to 102 °C
CSc1ccc(C2=C(Cl)C(=O)OC2)cc1	156 to 158 °C
Cc1cccc(NC(=O)NCC(=O)N(CC(=O)OC2CCCCC2)c2ccccc2)c1	176 °C
CC(=O)Oc1ccccc1C(=O)NC(O)C(Cl)(Cl)Cl (centres undefined)	124 to 126 °C
OC(CN1CCC(O)(Cc2ccccc2)CC1)c1ccc(F)cc1 (centres undefined)	144 to 146 °C
O=C(NCc1ccccn1)c1nc(-c2ccccc2)c(-c2ccc(=O)[nH]n2)s1	221 to 222 °C
C=C1CCCCCCCSC[C@@H](C(=O)OCC)NC1=O	146 to 147 °C
S=C=NCCCN1CCC(c2ccccc2)CC1	50 to 55 °C
CC#Cc1ccc(NC(=O)c2cccnc2Cl)cc1	136 to 138 °C
O=c1c(-c2ccccc2)c(CNc2ncnc3[nH]cnc23)oc2ccc(Br)cc12	151 to 154 °C
CC(=O)Oc1cc(-c2ccccc2)ccc1C1(OC(C)=O)C(=O)c2ccccc2C1=O	165 to 167 °C
CN1CC(CN2CC(=O)NC2=O)CC2c3cccc4[nH]cc(c34)CC21 (centres undefined)	199 to 201 °C
C[Si](C)(C)CCCNC(=O)n1cc(F)c(=O)[nH]c1=O	146 to 149 °C
O=C(O)CCc1cn(-c2cccnc2)c2ccccc12	147 to 149 °C
Oc1ccc(Nc2ccn(Cc3ccccc3)n2)cc1	114 to 116 °C
Cc1cc2c(Oc3cccc(C(F)(F)F)c3)nc(OCC(F)(F)F)nc2s1	124 to 125 °C
CC(=O)N1CCC2(CC1)CSC1=C(O2)c2ccccc2C(=O)C1=O	252 to 255 °C

Structure (SMILES)	melting point
CCOCc1nc2c(Cl)nc3ccccc3c2n1Cc1cc(-c2ccc(F)cc2)no1	189 to 190 °C
COCc1c(C(=O)OC(C)(C)C)ncc2[nH]c3ccc(Oc4ccc(Br)cn4)cc3c12	173 to 175 °C
CCCCOC(=O)c1cc([N+](=O)[O-])ccc1N	91 to 93 °C
CN(CCN(CCC12CC3CC(CC(C3)C1)C2)C(=O)NCCCc1ccncc1)S(C)(=O)=O	165 to 167 °C
COC(=O)c1cccc2c1C(Cc1ccnc(F)c1)(Cc1ccnc(F)c1)c1ccccc1-2	126 to 127 °C
O=C1CCCN1c1ccc2c(c1)OCO2	89 to 91 °C
CCC(=O)NCCC1=CCC2=C1C1=C(CC2)OCCC1	85 to 88 °C
O=C(NCCO)c1cccc(-c2cccc3c2CN(Cc2cccc(C(F)(F)F)c2)C3=O)c1	148 to 149 °C
Cc1ccc(Oc2cccc(-c3cccc(C(=O)NCCC#N)c3)n2)c(C)c1	114 to 115 °C
Fc1ccc(C(CCCN2CCN(c3n[nH]c4cc(Cl)ccc34)CC2)c2ccc(F)cc2)cc1	202 to 204 °C
COc1cc(CCl)c(OCCC(C)CCCC(C)C)cc1CCl (centres undefined)	65 °C
CC(C)=CCc1c(O)ccc(CCCc2ccc(O)cc2)c1O	115 to 116 °C
Nc1ccc(N2CCN(CCCC3CCCC3)C2=O)cc1	97 to 99 °C
O=C(CS(=O)(=O)c1ccccc1)NNC(=O)N1Cc2ccccc2Oc2ccc(Cl)cc21	180 to 183 °C
CCCC1(CC(=O)O)OC=CC2=C1NC1=C3CCCCC3CCC21 (centres undefined)	78 to 80 °C
CC(C)C[C@H](NC(=O)OC(C)(C)C)[C@@H]1CCC(=O)O1	75 to 77 °C
CCOC(=O)c1cc([N+](=O)[O-])ccc1F	53 to 54 °C
CCOc1cc(N(CC)CC)ccc1C=O	58 to 59 °C
C=C(CCCCCCCCC)C(N)=O	80 to 81 °C
CC1(C)CCC(C)(C)c2cc(-c3cc(-c4ccc(C(=O)O)cc4)ccc3OCCCN)ccc21	243 °C
Cc1nc(-c2cn(CCc3ccc(F)cc3)nn2)sc1C(=O)NCc1ccccc1	181 to 182 °C
CCOC(=O)c1cnc2c(N=C3C(=O)OC(C)(C)OC3=O)cccc2c1	228 to 231 °C
NC(=O)c1ccc(N2CCN(CCC3=CCCc4ccccc43)CC2)cc1	216 °C
COCCOc1cc2ncc(C#N)c(NC3=CC(=O)C(C)=CC3=O)c2cc1OC	174 to 177 °C
COc1ccc(C(=O)Nc2ccccc2)cc1NC(=S)Nc1ccc(C)cc1	156 to 158 °C
CCOC(=O)c1cnn2c1c(N)nc1ccccc12	235 to 237 °C

Structure (SMILES)	melting point
Cc1sc(N)c(C(=O)c2cccs2)c1C	117 to 118 °C
O=C(O)[C@H]1C[C@H](NC(=O)N2CCc3ccccc32)c2c(Cl)cc(Cl)cc2N1 (relative stereo)	251 to 252 °C
CCCCCCCC1=CC(=O)OC1(O)CNc1ccccc1 (centres undefined)	172 to 174 °C
CC1SC(=O)NN=C1c1ccc2c(c1)C(=NNc1ccc(Cl)cc1)C(=O)N2 (centres undefined)	283 °C
CCN1CCCC1CNC(=O)c1cc(NS(N)(=O)=O)c(C)cc1OC (centres undefined)	140 to 141 °C
O=c1c2c(Cc3ccccc3)n[nH]c2c2ccccc2n1-c1ccccc1	255 to 257 °C
COC(=O)c1coc(-c2ncn3c2CN(C)C(=O)c2c(Cl)cccc2-3)n1	266 to 268 °C
CC(C)(C)c1cc(C(=O)c2cccs2)cc(CN(C2CCCCC2)C2CCCCC2)c1O	161 to 162 °C
c1csc(-c2noc(COc3ccc(CCCCn4ccnc4)cc3)n2)c1	94 to 95 °C
CCOc1cc2cc3c(Nc4cc(OC)c(Cl)cc4C)c(C#N)cnc3cc2cc1OCCN1CCOCC1	201 to 203 °C
COC(=O)C(C)NC(=O)CCc1ccc(C(=O)CCl)cc1 (centres undefined)	122 to 124 °C
CCOC(=O)c1cc(Nc2cccnc2)c(=O)n(CC)n1	166 to 167 °C
COc1ccc(-c2nccc(N)n2)cc1	102 to 104 °C
COc1ccc(/C=C/C(=O)/C=C/c2ccc(C(F)(F)F)cc2)cc1	144 to 146 °C
CC(=O)c1cnc([N+](=O)[O-])n1C	81 to 83 °C
O=C(NC(O)C(Cl)(Cl)Cl)c1cc([N+](=O)[O-])ccc1O (centres undefined)	223 to 225 °C
COCC12CCC(O)CC1CCC1C3CCC(=O)C3(C)CCC12 (centres undefined)	172 to 174 °C
Cc1c(CC(=O)OCCCCO)cc(-c2ccc(S(C)(=O)=O)cc2)n1-c1ccc(F)cc1	149 to 151 °C
CN1CC[C@@H](c2c(O)cc(O)c3c(=O)cc(-c4ccc([N+](=O)[O-])cc4Br)oc23)[C@@H]1CO	186 °C
Oc1cc(O)c2ccccc2n1	350 to 355 °C
CC(=O)Cn1cnc2c1c(=O)n(CC1CC1)c(=O)n2C1CCCC1	155 °C
CC(O)=C(C(=O)OCc1ccccc1)N1C(=O)[C@@H](N2C(=O)c3ccccc3C2=O)[C@H]1COS(C)(=O)=O	61 to 65 °C
CCOCc1nc2c(N)nc3cc(-c4ccccc4)cnc3c2n1CC(C)(C)O	158 to 159 °C
c1ccc(COc2ccc(N3c4ccccc4Sc4ccccc43)cc2)cc1	144 to 146 °C
CCc1nc2cc(CO)c(Cl)cc2n1-c1ccc(CCOC(=O)NS(=O)(=O)c2ccc(C)cc2)cc1	173 °C
CC(C)c1c(Cl)nc(Cl)nc1Cl	69.4 °C
